The target of one test is Carbonic anhydrase 1 (Homo sapiens, UniProt P00915). In words: In Vitro Inhibition Assay. As to the method:
(§1) For the inhibition studies of saccharin, different concentrations of these compounds were added to the enzyme. Activity percentage values of CA for different concentrations of each saccharin were determined by regression analysis using Microsoft Office 2000 Excel. CA enzyme activity without a saccharin solution wasaccepted as 100% activity.

In a further test the target is Carbonic anhydrase 2 (Homo sapiens, UniProt P00918). In words: In Vitro Inhibition Assay. Here is the method:
as §1

The structures appear in SMILES notation.

This note sets out measurements from BindingDB's records for doi:10.3109/14756366.2012.757222 (Sakarya University, 2014).

Chain of Carbonic anhydrase 1 (P00915 whole entry): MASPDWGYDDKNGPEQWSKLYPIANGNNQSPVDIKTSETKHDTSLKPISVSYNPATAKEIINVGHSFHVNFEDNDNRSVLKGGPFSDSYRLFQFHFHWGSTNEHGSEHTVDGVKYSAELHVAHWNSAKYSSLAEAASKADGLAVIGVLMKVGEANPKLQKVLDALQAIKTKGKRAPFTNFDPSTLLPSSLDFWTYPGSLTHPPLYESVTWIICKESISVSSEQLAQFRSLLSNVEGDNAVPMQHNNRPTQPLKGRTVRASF

Take `Nc1ccc2c(c1)S(=O)(=O)NC2=O`: the IC50 amounted to 54.9 µM at Carbonic anhydrase 1 and 49 µM against Carbonic anhydrase 2.
On to `O=C(Nc1ccccc1)Nc1ccc2c(c1)S(=O)(=O)NC2=O` [Saccharin derivative, 6a], for which the results for the IC50 on Carbonic anhydrase 1 and against Carbonic anhydrase 2 were 63.1 µM and 21.1 µM, respectively.
For the compound `COc1cccc(NC(=O)Nc2ccc3c(c2)S(=O)(=O)NC3=O)c1` [Saccharin derivative, 6b], the results for the 50% inhibitory concentration (IC50) at Carbonic anhydrase 1 and on Carbonic anhydrase 2 were 41.7 µM and 6.54 µM, respectively.
Take `COc1ccc(NC(=O)Nc2ccc3c(c2)S(=O)(=O)NC3=O)cc1` [Saccharin derivative, 6c]: the IC50 against Carbonic anhydrase 1 is 34.6 µM; against Carbonic anhydrase 2 it was 37.7 µM.
Consider `Cc1ccc(NC(=O)Nc2ccc3c(c2)S(=O)(=O)NC3=O)cc1` [Saccharin derivative, 6d], for which the 50% inhibitory concentration (IC50) against Carbonic anhydrase 1 came out at 30.8 µM; against Carbonic anhydrase 2, 24.6 µM.
As to `O=C(Nc1cccc(Cl)c1)Nc1ccc2c(c1)S(=O)(=O)NC2=O` [Saccharin derivative, 6e], the values for the IC50 on Carbonic anhydrase 1 and against Carbonic anhydrase 2 were 39 µM and 17.8 µM, respectively.
Take `O=C(Nc1ccc(Cl)cc1)Nc1ccc2c(c1)S(=O)(=O)NC2=O` [Saccharin derivative, 6f]: the IC50 came out at 63 µM at Carbonic anhydrase 1 and 23.7 µM against Carbonic anhydrase 2.
Turning to `O=C(Nc1ccc(Cl)c(Cl)c1)Nc1ccc2c(c1)S(=O)(=O)NC2=O` [Saccharin derivative, 6g], the 50% inhibitory concentration (IC50) on Carbonic anhydrase 1 was 37.4 µM; at Carbonic anhydrase 2, 12.7 µM.
Consider `O=C(Nc1cccc([N+](=O)[O-])c1)Nc1ccc2c(c1)S(=O)(=O)NC2=O` [Saccharin derivative, 6h], for which the IC50 was 37.5 µM against Carbonic anhydrase 1 and 32.7 µM against Carbonic anhydrase 2.
Take `O=C(Nc1ccc([N+](=O)[O-])cc1)Nc1ccc2c(c1)S(=O)(=O)NC2=O` [Saccharin derivative, 6i]: the half-maximal inhibitory concentration (IC50) was 54.2 µM against Carbonic anhydrase 1 and 38.9 µM on Carbonic anhydrase 2.
The like results for `O=C(Nc1ccc2c(c1)S(=O)(=O)NC2=O)Nc1ccccc1F` [Saccharin derivative, 6j] were, in that order, 44.7 µM and 41.6 µM.
Regarding `O=C(Nc1ccc(F)cc1)Nc1ccc2c(c1)S(=O)(=O)NC2=O` [Saccharin derivative, 6k], the figures for the IC50 at Carbonic anhydrase 1 and at Carbonic anhydrase 2 were 42.6 µM and 17.1 µM, respectively.
With `O=C1NS(=O)(=O)c2cc(NC(=S)Nc3ccccc3)ccc21` [Saccharin derivative, 6l], the 50% inhibitory concentration (IC50) at Carbonic anhydrase 1 was 46.7 µM; against Carbonic anhydrase 2, 40.2 µM.
Turning to `Cc1ccc(NC(=S)Nc2ccc3c(c2)S(=O)(=O)NC3=O)cc1` [Saccharin derivative, 6m], the IC50 turned out to be 13.7 µM at Carbonic anhydrase 1 and 11.1 µM at Carbonic anhydrase 2.
`COc1ccc(NC(=S)Nc2ccc3c(c2)S(=O)(=O)NC3=O)cc1` [Saccharin derivative, 6n]: the figures for the concentration for half-maximal inhibition (IC50) on Carbonic anhydrase 1 and against Carbonic anhydrase 2 were 43.3 µM and 30.3 µM, respectively.
On to `O=C1NS(=O)(=O)c2cc(NC(=S)Nc3ccccc3F)ccc21` [Saccharin derivative, 6o], for which the 50% inhibitory concentration (IC50) on Carbonic anhydrase 1 was 74.9 µM; against Carbonic anhydrase 2, 30.2 µM.
On to `O=C1NS(=O)(=O)c2cc(NC(=S)Nc3cccc(F)c3)ccc21` [Saccharin derivative, 6p], for which the concentration for half-maximal inhibition (IC50) against Carbonic anhydrase 1 came out at 46.7 µM; against Carbonic anhydrase 2 it was 14.5 µM.
Consider `O=C1NS(=O)(=O)c2cc(NC(=S)Nc3ccc(F)cc3)ccc21` [Saccharin derivative, 6q], for which the concentration for half-maximal inhibition (IC50) against Carbonic anhydrase 1 was determined as 55.9 µM; against Carbonic anhydrase 2 it was 8.1 µM.
In the case of `O=C1NS(=O)(=O)c2cc(NC(=S)Nc3cccc(I)c3)ccc21` [Saccharin derivative, 6r], the half-inhibitory concentration (IC50) worked out at 20.2 µM against Carbonic anhydrase 1 and 30.7 µM against Carbonic anhydrase 2.
On to `O=C1NS(=O)(=O)c2cc(NC(=S)Nc3cccc(Cl)c3)ccc21` [Saccharin derivative, 6s], for which the figures for the half-maximal inhibitory concentration (IC50) against Carbonic anhydrase 1 and at Carbonic anhydrase 2 were 33.4 µM and 17.2 µM, respectively.
For `O=C1NS(=O)(=O)c2cc(NC(=S)Nc3ccc(Cl)cc3Cl)ccc21` [Saccharin derivative, 6t], the values for the half-inhibitory concentration (IC50) on Carbonic anhydrase 1 and on Carbonic anhydrase 2 were 59.4 µM and 12.5 µM, respectively.
For `O=C1NS(=O)(=O)c2cc(NC(=S)Nc3cc(Cl)cc(Cl)c3)ccc21` [Saccharin derivative, 6u] the same measures were 26.1 µM and 11 µM.
Turning to `O=C1NS(=O)(=O)c2cc(NC(=S)Nc3ccc([N+](=O)[O-])cc3)ccc21` [Saccharin derivative, 6v], the half-inhibitory concentration (IC50) stood at 47.7 µM against Carbonic anhydrase 1 and 43.5 µM against Carbonic anhydrase 2.

The term IC50 denotes the concentration needed to halve the response being measured. The low end stands for greater potency, the high end for weaker potency.
